# Measurements published in patent publication US10251842B1, “Nanocapsule containing a bioactive compound, and a method of reducing toxicity resulting from cancer therapy” (King Abdulaziz University, priority 2017, dated 2019).
# Marks after values point to notes of the source that are not given here.
# Tests used:
# [1] = test system: SUIT2 pancreatic cancer cells; test: MTT cell viability/proliferation assay, SUIT2; type: cell-based, human; conditions: SUIT2, 24 hours, 1 μg/ml
# Protocol: SUIT2-luc cells were grown in DMEM supplemented with 5% fetal bovine serum, 1% penicillin, and 1% streptomycin. Cells were cultured at 37° C. to sub-confluence and treated with 0.25% w/v typsin/EDTA to affect cell release from culture flask. After washing cells with culture medium, cells were suspended in DMEM (free of phenol red and fetal bovine serum) and counted.
# SUIT2 cells were subjected to treatment with unencapsulated DIM, unencapsulated EA, combinations thereof, and the nanocapsules containing DIM and/or EA at concentrations of the bioactive compounds ranging from 0.1 to 10 μg. Briefly, cells were seeded at a density of 10^4 cells/well in 96-well plates, and then incubated with compounds and nanocapsules for 24 hours. Cell viability/proliferation was determined by MTT assay, as per the manufacturer's protocol. MTT solution was added to each well, and cells were further incubated for 4 hours at 37° C. The formed dye was solubilized by the addition of 50 μL of DMSO and incubated for 10 min at 37° C. The optical density of each well was determined using an ELISA plate reader at an activation wavelength of 570 nm and reference wavelength of 650 nm. The percentage of viable cells was determined by comparison to untreated control cells.
# SUIT2 pancreatic tumor = test: CAM pancreatic cancer cell implant model (tumor growth, tumor angiogenesis, IVIS bioluminescence); type: in vivo, chick embryo; conditions: for suppression of vascular pattern / tumor angiogenesis of pancreatic tumor: 1 μg/CAM, 3 days of incubation, nanocapsules versus unencapsulated; for viable pancreatic cancer cells, bioluminescence (IVIS): SUIT2-luc tumors, ex vivo imaging
# Protocol: To determine the relative potency of different nanocapsules and unencapsulated bioactive compounds, they were tested in the CAM pancreatic cancer cell implant model of tumor growth and tumor angiogenesis by modifying published protocols (Marcinkiewicz C. Weinreb P H, Calvete J J, Kisiel D G, Mousa S A, Tuszynski G P, Lobb R R. A Potent Selective Inhibitor of alpha1beta1 Integrin in Vitro and Angiogenesis in Vivo. Cancer Res. 2003; 63(9): 2020-2023; and Deryugina E I and Quigley J P: Chick Embryo Chorioallantoic Membrane Models to Quantify Angiogenesis induced by inflammatory and tumor cells or purified effector molecules. Methods in Enzymol. 2008; 444: 21-41, each incorporated herein by reference in their entirety).
# A 7-day old chick embryo were purchased from Spafas, Inc. (Preston, Conn.) and incubated at 37° C. with 55% relative humidity. A hypodermic needle was used to make a small hole in the shell at the air sac and a second hole will be made on the broadside of the egg, directly over an avascular portion of the embryonic membrane that was identified by candling. A false air sac was created beneath the second hole by the application of negative pressure at the first hole, causing the CAM to separate from the shell. […] Treatment effects (Tumor growth, and tumor angiogenesis were determined 7 days after tumor cell implantation. For these studies, Matrigel® (BD Bioscience, San Jose Calif.) were thawed overnight at 4° C. and placed on ice. Cells in exponential growth phase were harvested using 0.25% trypsin-EDTA washed and suspended in medium. Only suspensions of single cells with a viability exceeding 95% were used. Approximately 1×10^6 cells in 30 μL of medium mixed with same volume (30 μL) of Matrigel was implanted on the chorioallantoic membrane.
# After incubation at 37° C. with 55% relative humidity for 3 days, the CAM tissue directly beneath each filter disk was resected from control and treated CAM samples. […] Digital images of CAM sections exposed to filters were collected, using a 3-CCD color video c vera system (Toshiba America, New York, N.Y.), and analyzed with Image-Pro software (Media Cybernetics, Silver Spring, Md.). The numbers of vessel branch points contained in a circular region equal to the area of each filter disk were counted. One image was counted in each CAM preparation, and findings from 6-8 CAM preparations group were analyzed for each treatment condition.
# Results presented as mean tumor weight (mg) per treatment group and tumor hemoglobin (mg/dl)±SD, n=8 eggs per group. The effect of these treatments was determined after 7 days of implantation. […]
# cisplatin-induced NF-κB = test: NF-κB luciferase assay in HeLa cells stimulated with cisplatin; type: cell-based; conditions: Homo sapiens, 3 μM (3 μM total for combinations), n = 3, read-out: Mean % inhibition of cisplatin-induced NFkB ± SD
# Protocol: The induction of NF-κB by cisplatin and other chemotherapies is known to be associated with neuropathy and nephrotoxicity. In this example, the effect of unencapsulated DIM and EA, and the nanocapsules cisplatin-induced NF-κB was studied using HeLa cells which expressed NF-κB.
# HeLa cells were seeded at 1×10^5 cells in 2 ml/well in 6-well plates at 37° C. for 24 hours. The doses of the test compounds were based on preliminary studies. Test compounds (nanocapsules containing DIM, nanocapsules containing E&, nanocapsules containing DIM and EA, unencapsulated DIM, and unencapsulated EA) were added at concentrations ranging from 1-3 μM to the plate with fresh medium including 0.5% FBS and incubated at 37° C. in 5% CO2 for an additional 3 hours. For induction of transcription and to test the biological response of the promoters, the cell line stimulated with cisplatin (Sigma) and the cells were incubated at 37° C. in 5% CO2 for 24 hours. The luciferase activity determined by using the luciferase assay system (Promega, Madison, Wis., US). […] Luminescence was immediately measured using Glomax 20/20 Illuminometer (Promega). Luciferase expression of each test compound was quantified as the relative light units (RLU), normalized to readings of control wells, and expressed as relative NF-κB reporter activity. The mean % inhibitory effects of the compounds were calculated.
# [2] = Plasma cardiac troponin in MCF-7 tumor bearing mice; type: in vivo
# [3] = test system: breast cancer MCF-7 tumor; test: Subcutaneous xenograft in nude mice, breast cancer MCF-7; type: in vivo; conditions: SC, mean ± SEM, n = 4-5 animals/group
# Protocol: Immunodeficient, female NCr nude mice aged 5-6 weeks and weighing between […] were maintained under specific pathogen-free conditions and housed under controlled conditions of temperature (20-24° C.) and humidity (60-70%) and 12 h light/dark cycle with ad libitum access to water and food. Mice were allowed to acclimatize for 5 days prior to the start of study.
# Xenografts containing 1×10^6 to 2×10^6 tumor cells (e.g., pancreatic SUIT2, colon HT-29, glioblastoma U87, or breast cancer MCF-7 cells) were implanted subcutaneously in a mouse flank. There were 2 grafts mouse and there were 4 mice in each group (control, treatments using vehicle). DMSO or ethyl acetate used during the preparation of nanocapsules was totally removed by dialysis and the vehicle used to disperse the DIM or EA and their nanocapsule forms was phosphate buffered saline (PBS).
# Tumors were excised at the end of the study from all treatment arms, which included control; DIM; EA; nanocapsule containing DIM; nanocapsule containing EA; nanocapsule containing DIM acid EA; nanocapsule containing cisplatin; nanocapsule containing doxorubicin; nanocapsule containing cisplatin, DIM, and EA; and nanocapsule containing doxorubicin, DIM, and EA. Tumor growth was measured.
Compound,effect on cell viability/proliferation [1],suppression of vascular pattern / tumor angiogenesis of pancreatic tumor (SUIT2 pancreatic tumor),"viable pancreatic cancer cells, bioluminescence (IVIS) (SUIT2 pancreatic tumor)",inhibition at 3 µM (cisplatin-induced NF-κB),plasma cardiac troponin ([2]; MCF-7 tumor bearing mice),"Troponin (% from control) ([2]; mice, SC)",Mean Breast (MCF-7) Tumor Growth [3]
"c1ccc2c(Cc3c[nH]c4ccccc34)c[nH]c2c1 [DIM, 3,3′-diindolylmethane]",did not show any significant effect,mild suppression,statistically significant reduction,20 ± 5%,–,–,–
"COc1cccc2c1C(=O)c1c(O)c3c(c(O)c1C2=O)C[C@@](O)(C(=O)CO)C[C@@H]3O[C@H]1C[C@H](N)[C@H](O)[C@H](C)O1 [DOX, doxorubicin]",–,–,–,–,large increase,+50-70%**,0.70 ± 0.15 g
"O=c1oc2c(O)c(O)cc3c(=O)oc4c(O)c(O)cc1c4c23 [Ellagic acid, ellagic acid]",did not show any significant effect,mild suppression,statistically significant reduction,26 ± 4%,–,–,–
